Laboratory results reported in patent US20250145606A1 (Arcus Biosciences, Inc., priority 2023, published 2025).

What was measured:
c-Kit = c-Kit (Homo sapiens (Human), UniProt P10721); assay: Inhibition of c-Kit kinase activity (HTRF KinEASE-TK); type: biochemical; details: biochemical, HTRF KinEASE-TK
Method in brief: (§1)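 Phosphorylation of biotinylated TK peptide read by HTRF (665/620 nm ratio) after 120 min at rt, following 1 h enzyme–compound preincubation. ATP (2× mix): 20 μM CSF1R, 16 μM c-Kit, 40 μM PDGFRβ, 1 μM PDGFRα; MgCl2 10 mM except c-Kit 5 mM. 22-point 1:2 titration; four-parameter IC50.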

[1] = tested on: Phospho-KIT (Y703) in M07e cells; assay: Phospho-KIT (Y703) cellular assay in M07e cells; type: cell-based; details: M-07e; Phospho-KIT (Y703), M07e cells; read-out: M07e Cell IC50
Method in brief: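 Serum-starved M07e cells preincubated 50 min at 37° C with 11-point half-log compound titration, then stimulated 10 min with SCF at 90.9 ng/mL final. Fixed, permeabilized cells stained for phospho-KIT Y703 and read by flow cytometry (live-gated geometric mean); IC50 by 4-parameter fit normalized to DMSO and positive control.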

FLT3 = FLT3 (Homo sapiens (Human), UniProt P36888); assay: Inhibition of FLT3 kinase activity (HTRF KinEASE-TK); type: biochemical; details: biochemical, HTRF KinEASE-TK
Sequence of FLT3 (P36888 27-993): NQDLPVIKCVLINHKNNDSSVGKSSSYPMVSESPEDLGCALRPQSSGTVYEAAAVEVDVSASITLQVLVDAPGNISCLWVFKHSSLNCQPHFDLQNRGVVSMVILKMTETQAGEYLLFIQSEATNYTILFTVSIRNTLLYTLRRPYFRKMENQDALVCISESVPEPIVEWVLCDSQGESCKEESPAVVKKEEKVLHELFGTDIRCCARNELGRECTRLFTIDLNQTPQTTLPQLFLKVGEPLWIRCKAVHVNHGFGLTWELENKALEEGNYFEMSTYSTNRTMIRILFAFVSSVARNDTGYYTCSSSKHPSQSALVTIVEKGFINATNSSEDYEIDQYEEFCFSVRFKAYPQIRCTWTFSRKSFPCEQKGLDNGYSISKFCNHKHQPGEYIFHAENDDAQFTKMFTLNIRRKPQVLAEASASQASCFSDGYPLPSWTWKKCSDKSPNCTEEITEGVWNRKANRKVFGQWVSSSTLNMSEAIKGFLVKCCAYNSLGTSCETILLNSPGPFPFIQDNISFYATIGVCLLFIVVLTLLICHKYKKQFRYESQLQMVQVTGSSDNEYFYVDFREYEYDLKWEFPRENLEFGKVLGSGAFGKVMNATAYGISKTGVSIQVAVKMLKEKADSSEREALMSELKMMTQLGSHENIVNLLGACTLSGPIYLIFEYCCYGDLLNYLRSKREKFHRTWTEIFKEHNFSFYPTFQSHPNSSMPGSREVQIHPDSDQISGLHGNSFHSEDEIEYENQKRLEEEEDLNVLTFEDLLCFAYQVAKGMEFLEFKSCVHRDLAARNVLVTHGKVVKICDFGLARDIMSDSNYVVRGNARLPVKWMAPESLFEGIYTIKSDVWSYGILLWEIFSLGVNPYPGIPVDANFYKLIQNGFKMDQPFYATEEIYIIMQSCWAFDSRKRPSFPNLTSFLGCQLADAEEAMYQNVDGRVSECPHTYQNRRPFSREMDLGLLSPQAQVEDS
Method: Inhibition of c-Kit, PDGFRα, PDGFRβ, CSFIR and FLT3 Kinase Activity
Compounds were evaluated to determine the potency with which they inhibit the kinase activity of the following panel of tyrosine kinases: c-Kit (SignalChem, Product #: K06-11BG), PDGFRα (SignalChem, Product #: P12-18G), PDGFRβ (SignalChem, Product #: P13-11G), CSFIR (SignalChem, Product #: C74-11G) and FLT3 (Invitrogen, Product #: PR4666C). Activity was determined as a function of phosphorylated biotinylated TK peptide generated by the transfer of phosphate from ATP as measured by the use of the HTRF KinEASE-TK assay kit (Cisbio, Product #: 62TKOPEJ). Levels of phosphorylated biotinylated TK peptide (Part 61TKOBLC of KinEASE assay kit) are quantified by its capture by phosphor-TK-Antibody-Cryptate (Part of KinEASE assay kit) and XL665-labeled Streptavidin (Part 610SAXLG of KinEASE assay kit) followed by measurement of Time-Resolved Fluorescence Resonance Energy Transfer (TR-FRET) signal. On the day of the assay, compounds were solubilized in DMSO and dispensed into a 384-well white Opti-plate (PerkinElmer, catalog #6007290) to generate a 22 point 1:2 titration. Enzyme solution was prepared for each of the tyrosine kinases in 50 mM HEPES, pH 7.4, 5 mM MgCl2 for c-Kit or 10 mM MgCl2 for FLT3, CSFIR, PDGFRa and PDGFRβ, 2 mM MnCl2, 0.01% Brij-35 and 0.01% BSA. Working enzyme concentrations were prepared for c-Kit at 2 nM (2×), PDGFRa and PDGFRß at 10 nM (2×), CSFIR at 2 nM (2×) and FLT3 at 0.4 nM (2×). Five microliters of enzyme dilution of each tyrosine kinase were added to their respective 384-well white Opti-plate pre-dispensed with compound and allowed to incubate for 1 h at rt. Utilizing the same enzyme buffer recipe, 2x substrate mixes were prepared for each enzyme as follows: For c-Kit, 1.6 μM (2×) TK substrate and 16 μM (2×) ATP (Promega, catalog #V915). For PDGFRα, 3.2 μM TK substrate and 1 μM ATP. For PDGFRβ, 3.2 μM TK substrate and 40 μM ATP. For CSFIR, […] TK substrate and 20 μM ATP. For FLT3, 3.2 μM TK substrate and 100 μM ATP. Reactions were initiated by addition of 5 μL of the respective 2x substrate mix to each well of the plates containing the respective tyrosine kinase enzymes and were allowed to proceed for 120 minutes at rt, except for FLT3, the reaction time is 45 min. Following the reaction, 10 μL of detection mix consisting of 0.2 μM (2×) of Streptavidin-XL665 and 2 μM (2×) of TK-Antibody-Cryptate prepared in detection buffer (Part 62SDBRDF of KinEASE assay kit) was added and then allowed to incubate for 60 min. The TR-FRET signal was quantified by measuring the ratio of emission at 665 nm to 620 nm after excitation at 320 nm by reading on a PerkinElmer Envision multimode reader. Compound potencies (IC50 values) were determined using a standard 4-parameter non-linear regression fit.

CSF1R = CSF1R (Homo sapiens (Human), UniProt P07333); assay: Inhibition of CSF1R kinase activity (HTRF KinEASE-TK); details: biochemical, HTRF KinEASE-TK
Sequence of CSF1R (P07333 20-972): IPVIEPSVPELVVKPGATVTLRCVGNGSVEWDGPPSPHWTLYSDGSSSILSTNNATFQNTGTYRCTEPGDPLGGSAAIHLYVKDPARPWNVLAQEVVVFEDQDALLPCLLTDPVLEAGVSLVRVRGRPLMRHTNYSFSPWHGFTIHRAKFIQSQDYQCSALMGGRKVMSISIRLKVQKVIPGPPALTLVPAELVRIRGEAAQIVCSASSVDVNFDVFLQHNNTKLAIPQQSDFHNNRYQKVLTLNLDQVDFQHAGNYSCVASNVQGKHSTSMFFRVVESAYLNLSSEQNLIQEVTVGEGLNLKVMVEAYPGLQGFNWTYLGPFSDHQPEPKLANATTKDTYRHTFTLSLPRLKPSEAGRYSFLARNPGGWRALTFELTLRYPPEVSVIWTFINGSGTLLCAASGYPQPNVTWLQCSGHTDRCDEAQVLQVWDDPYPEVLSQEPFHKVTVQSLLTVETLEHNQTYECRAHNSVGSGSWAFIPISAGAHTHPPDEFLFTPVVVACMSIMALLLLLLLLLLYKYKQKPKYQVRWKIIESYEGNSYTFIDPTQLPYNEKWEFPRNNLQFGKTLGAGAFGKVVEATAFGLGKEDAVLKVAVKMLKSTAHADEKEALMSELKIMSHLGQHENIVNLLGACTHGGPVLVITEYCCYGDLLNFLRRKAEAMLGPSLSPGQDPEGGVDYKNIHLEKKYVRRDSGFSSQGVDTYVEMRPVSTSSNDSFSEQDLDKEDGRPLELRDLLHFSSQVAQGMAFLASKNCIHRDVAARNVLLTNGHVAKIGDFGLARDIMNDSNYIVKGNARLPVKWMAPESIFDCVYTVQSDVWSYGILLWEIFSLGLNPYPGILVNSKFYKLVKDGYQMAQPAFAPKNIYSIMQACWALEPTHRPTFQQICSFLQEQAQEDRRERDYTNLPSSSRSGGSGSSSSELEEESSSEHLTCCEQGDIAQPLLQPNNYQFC
Method in brief: as §1

PDGFRβ = PDGFRβ (Homo sapiens (Human), UniProt P09619); assay: Inhibition of PDGFRβ kinase activity (HTRF KinEASE-TK); details: biochemical, HTRF KinEASE-TK
Sequence of PDGFRβ (P09619 33-1106): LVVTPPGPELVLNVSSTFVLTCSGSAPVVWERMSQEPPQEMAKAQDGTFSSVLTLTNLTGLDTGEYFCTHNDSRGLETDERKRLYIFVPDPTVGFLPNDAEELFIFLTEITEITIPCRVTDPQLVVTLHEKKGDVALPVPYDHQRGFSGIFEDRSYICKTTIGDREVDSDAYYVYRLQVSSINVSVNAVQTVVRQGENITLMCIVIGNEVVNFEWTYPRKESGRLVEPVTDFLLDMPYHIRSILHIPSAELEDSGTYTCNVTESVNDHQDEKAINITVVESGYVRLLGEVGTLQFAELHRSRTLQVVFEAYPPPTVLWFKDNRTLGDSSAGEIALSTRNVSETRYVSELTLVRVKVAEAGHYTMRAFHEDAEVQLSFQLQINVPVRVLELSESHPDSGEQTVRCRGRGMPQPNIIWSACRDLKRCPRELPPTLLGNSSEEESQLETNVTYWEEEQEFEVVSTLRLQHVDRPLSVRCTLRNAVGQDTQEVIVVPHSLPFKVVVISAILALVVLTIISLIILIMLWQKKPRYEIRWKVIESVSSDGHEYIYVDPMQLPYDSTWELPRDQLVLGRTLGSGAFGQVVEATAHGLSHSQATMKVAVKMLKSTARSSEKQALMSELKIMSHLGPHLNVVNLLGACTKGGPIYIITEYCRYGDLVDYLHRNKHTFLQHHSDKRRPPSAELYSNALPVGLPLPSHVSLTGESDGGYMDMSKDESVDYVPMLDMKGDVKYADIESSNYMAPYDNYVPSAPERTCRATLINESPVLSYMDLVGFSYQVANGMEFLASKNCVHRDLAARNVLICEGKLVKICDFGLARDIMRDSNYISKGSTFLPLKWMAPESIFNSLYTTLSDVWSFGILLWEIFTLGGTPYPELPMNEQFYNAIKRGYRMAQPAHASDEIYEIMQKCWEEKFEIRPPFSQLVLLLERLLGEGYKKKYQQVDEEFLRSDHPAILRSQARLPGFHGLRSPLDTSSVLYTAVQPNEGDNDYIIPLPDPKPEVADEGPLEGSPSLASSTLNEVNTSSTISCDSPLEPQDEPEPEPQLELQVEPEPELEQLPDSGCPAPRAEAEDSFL
Method in brief: as §1

PDGFRα = PDGFRα (Homo sapiens (Human), UniProt P16234); assay: Inhibition of PDGFRα kinase activity (HTRF KinEASE-TK); details: biochemical, HTRF KinEASE-TK
Sequence of PDGFRα (P16234 24-1089): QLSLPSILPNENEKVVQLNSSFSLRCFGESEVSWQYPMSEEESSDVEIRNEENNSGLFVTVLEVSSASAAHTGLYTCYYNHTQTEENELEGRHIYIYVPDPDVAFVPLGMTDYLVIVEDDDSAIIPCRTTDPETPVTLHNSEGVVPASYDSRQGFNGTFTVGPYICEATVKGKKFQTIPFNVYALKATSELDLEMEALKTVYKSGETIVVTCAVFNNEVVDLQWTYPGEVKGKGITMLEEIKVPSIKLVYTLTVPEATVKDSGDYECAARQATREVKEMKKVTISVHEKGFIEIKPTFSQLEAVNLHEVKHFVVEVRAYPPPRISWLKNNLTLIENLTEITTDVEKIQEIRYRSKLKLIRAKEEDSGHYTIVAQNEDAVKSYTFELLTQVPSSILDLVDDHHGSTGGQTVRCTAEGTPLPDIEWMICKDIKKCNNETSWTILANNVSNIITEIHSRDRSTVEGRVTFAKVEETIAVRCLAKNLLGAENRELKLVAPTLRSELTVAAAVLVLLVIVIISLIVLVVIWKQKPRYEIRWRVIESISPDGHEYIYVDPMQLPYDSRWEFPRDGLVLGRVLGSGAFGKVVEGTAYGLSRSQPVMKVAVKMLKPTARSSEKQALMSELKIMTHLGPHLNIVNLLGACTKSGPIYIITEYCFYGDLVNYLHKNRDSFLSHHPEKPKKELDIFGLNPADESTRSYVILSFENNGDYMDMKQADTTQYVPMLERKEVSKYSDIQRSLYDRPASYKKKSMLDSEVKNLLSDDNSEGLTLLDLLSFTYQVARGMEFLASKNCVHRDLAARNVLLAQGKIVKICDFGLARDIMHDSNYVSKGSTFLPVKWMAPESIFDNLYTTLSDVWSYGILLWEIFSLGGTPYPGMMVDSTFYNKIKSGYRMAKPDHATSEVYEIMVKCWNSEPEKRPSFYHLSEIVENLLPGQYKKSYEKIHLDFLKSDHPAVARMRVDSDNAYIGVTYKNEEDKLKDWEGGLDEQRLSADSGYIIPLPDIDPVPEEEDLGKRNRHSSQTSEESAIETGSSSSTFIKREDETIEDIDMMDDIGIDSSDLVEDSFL
Method in brief: as §1

Sequence of c-Kit (P10721 26-976): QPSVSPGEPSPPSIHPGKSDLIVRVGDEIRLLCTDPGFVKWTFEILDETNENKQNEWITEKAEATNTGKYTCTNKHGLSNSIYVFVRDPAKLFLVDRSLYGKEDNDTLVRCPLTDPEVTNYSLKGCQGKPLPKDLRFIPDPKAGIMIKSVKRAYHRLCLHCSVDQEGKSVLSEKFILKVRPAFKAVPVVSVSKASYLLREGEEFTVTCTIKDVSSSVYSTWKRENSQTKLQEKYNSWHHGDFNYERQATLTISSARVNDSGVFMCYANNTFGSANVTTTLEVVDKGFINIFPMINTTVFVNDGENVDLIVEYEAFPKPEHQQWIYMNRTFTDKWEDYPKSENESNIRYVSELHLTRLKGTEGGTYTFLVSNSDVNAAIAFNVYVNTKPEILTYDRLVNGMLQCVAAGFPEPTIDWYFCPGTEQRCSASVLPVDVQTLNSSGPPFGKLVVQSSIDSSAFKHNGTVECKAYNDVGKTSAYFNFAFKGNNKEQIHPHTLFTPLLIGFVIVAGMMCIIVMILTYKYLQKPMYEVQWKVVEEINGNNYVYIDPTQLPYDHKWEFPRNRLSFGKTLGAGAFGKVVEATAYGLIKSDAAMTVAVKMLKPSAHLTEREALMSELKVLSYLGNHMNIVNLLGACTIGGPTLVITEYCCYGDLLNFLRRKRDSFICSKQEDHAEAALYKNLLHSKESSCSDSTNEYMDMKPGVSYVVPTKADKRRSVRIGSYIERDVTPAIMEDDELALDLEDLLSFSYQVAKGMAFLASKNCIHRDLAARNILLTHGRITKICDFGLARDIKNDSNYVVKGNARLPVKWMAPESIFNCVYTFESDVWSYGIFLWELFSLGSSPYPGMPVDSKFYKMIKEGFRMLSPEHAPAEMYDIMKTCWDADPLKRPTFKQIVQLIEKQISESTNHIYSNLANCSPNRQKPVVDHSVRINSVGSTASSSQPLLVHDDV

Row | Structure (SMILES) | IC50 (c-Kit) [nM] | IC50 [1] [nM] | IC50 (FLT3) [nM] | IC50 (CSF1R) [nM] | IC50 (PDGFRβ) [nM] | IC50 (PDGFRα) [nM]
1 | Cc1ncc(C(=O)Nc2cc(C(=O)Nc3cnc(OC(F)(F)F)cn3)c(F)cc2C)s1 [Example 87, N-[5-(N-5-trifluoromethoxy-2-pyrazinylcarbamoyl)-4-fluoro-2-tolyl]-2-methyl-1,3-thiazole-5-carboxamide] | < 100 | < 100 | > 1000 | > 1000 | – | –
2 | Cc1ncc(C(=O)Nc2cc(C(=O)Nc3ccc(C4CC4)nc3)c(F)cc2C)s1 [Example 24, N-[5-[(6-Cyclopropylpyridin-3-yl)carbamoyl]-4-fluoro-2-methylphenyl]-2-methyl-1,3-thiazole-5-carboxamide] | < 100 | < 100 | > 1000 | > 1000 | – | –
3 | Cc1ncc(C(=O)Nc2cc(C(=O)Nc3cnc(CC4CC4)cn3)c(F)cc2C)s1 [Example 91, N-{5-[N-5-(cyclopropylmethyl)-2-pyrazinylcarbamoyl]-4-fluoro-2-tolyl}-2-methyl-1,3-thiazole-5-carboxamide] | < 100 | < 100 | > 1000 | > 1000 | – | –
4 | Cc1ncc(C(=O)Nc2cc(C(=O)Nc3cnc(OC4CC4)cn3)c(F)cc2C)s1 [Example 13, N-[5-[(5-Cyclopropyloxypyrazin-2-yl)carbamoyl]-4-fluoro-2-methylphenyl]-2-methyl-1,3-thiazole-5-carboxamide] | < 100 | < 100 | > 1000 | > 1000 | – | –
5 | Cc1ncc(C(=O)Nc2cc(C(=O)Nc3ccc(C(F)(F)F)cn3)c(F)cc2C)s1 [Example 14, N-[4-Fluoro-2-methyl-5-[[5-(trifluoromethyl)pyridin-2-yl]carbamoyl]phenyl]-2-methyl-1,3-thiazole-5-carboxamide] | < 100 | – | > 1000 | > 1000 | > 1000 | > 1000
6 | Cc1ncc(C(=O)Nc2cc(C(=O)Nc3ccn(C4CCC4)n3)c(F)cc2C)s1 [Example 61, N-[5-[(1-Cyclobutylpyrazol-3-yl)carbamoyl]-4-fluoro-2-methylphenyl]-2-methyl-1,3-thiazole-5-carboxamide] | < 100 | – | > 1000 | > 1000 | > 1000 | > 1000
7 | Cc1cc(F)c(C(=O)Nc2ccc3c(n2)COC3)cc1NC(=O)c1cnc(N)s1 [Example 120, 2-Amino-N-[5-(5,7-dihydrofuro [3,4-b]pyridin-2-ylcarbamoyl)-4-fluoro-2-methylphenyl]-1,3-thiazole-5-carboxamide] | < 100 | – | > 1000 | > 1000 | > 1000 | > 1000
8 | Cc1cc(F)c(C(=O)N[C@H]2C[C@H]2F)cc1NC(=O)c1cnc(N)s1 [Example 136, 2-Amino-N-[4-fluoro-5-[[(1S,2R)-2-fluorocyclopropyl]carbamoyl]-2-methylphenyl]-1,3-thiazole-5-carboxamide] | 100 to 1000 | – | > 1000 | > 1000 | > 1000 | 100 to 1000
9 | Cc1cc(F)c(C(=O)NCC2(F)CCC2)cc1NC(=O)c1cnc(NC(=O)N2CCC2)s1 [Example 104, 2-(Azetidine-1-carbonylamino)-N-[4-fluoro-5-[(1-fluorocyclobutyl)methylcarbamoyl]-2-methylphenyl]-1,3-thiazole-5-carboxamide] | < 100 | < 100 | > 1000 | 100 to 1000 | – | –

Now from value to molecule:

Row | IC50 (c-Kit) [nM] | IC50 [1] [nM] | IC50 (FLT3) [nM] | IC50 (CSF1R) [nM] | IC50 (PDGFRβ) [nM] | IC50 (PDGFRα) [nM] | Structure (SMILES)
10 | < 100 | < 100 | > 1000 | > 1000 | – | – | Cc1cc(F)c(C(=O)NCC2(F)CC2)cc1NC(=O)c1cnc(N)s1 [Example 193, 2-Amino-N-[4-fluoro-5-[(1-fluorocyclopropyl)methylcarbamoyl]-2-methylphenyl]-1,3-thiazole-5-carboxamide]
11 | < 100 | < 100 | > 1000 | > 1000 | > 1000 | – | Cc1cc(F)c(C(=O)Nc2ccn(-c3ccccn3)n2)cc1NC(=O)c1cnc(N)s1 [Example 168, 2-Amino-N-[4-fluoro-2-methyl-5-[(1-pyridin-2-ylpyrazol-3-yl)carbamoyl]phenyl]-1,3-thiazole-5-carboxamide]
12 | < 100 | – | > 1000 | > 1000 | > 1000 | > 1000 | Cc1cc(F)c(C(=O)Nc2cnn(C)c2)cc1NC(=O)c1cnc(N)s1 [Example 167, 2-Amino-N-[4-fluoro-2-methyl-5-[(1-methylpyrazol-4-yl)carbamoyl]phenyl]-1,3-thiazole-5-carboxamide]
13 | < 100 | – | > 1000 | > 1000 | 100 to 1000 | > 1000 | Cc1cc(F)c(C(=O)Nc2ccc(OC3CC3)cn2)cc1NC(=O)c1cnc(NC(=O)C(F)(F)F)s1 [Example 239, N-[5-[(5-cyclopropyloxypyridin-2-yl)carbamoyl]-4-fluoro-2-methylphenyl]-2-[(2,2,2-trifluoroacetyl)amino]-1,3-thiazole-5-carboxamide]
14 | < 100 | – | > 1000 | 100 to 1000 | 100 to 1000 | > 1000 | Cc1cnc(NC(=O)c2cc(NC(=O)c3cnc(N)s3)c(C)cc2F)s1 [Example 160, 2-Amino-N-[4-fluoro-2-methyl-5-[(5-methyl-1,3-thiazol-2-yl)carbamoyl]phenyl]-1,3-thiazole-5-carboxamide]
15 | < 100 | – | > 1000 | > 1000 | > 1000 | 100 to 1000 | Cc1cc(F)c(C(=O)N[C@H]2C[C@@H]2F)cc1NC(=O)c1cnc(N)s1 [Example 138, 2-Amino-N-[4-fluoro-5-[[(1S,2S)-2-fluorocyclopropyl]carbamoyl]-2-methylphenyl]-1,3-thiazole-5-carboxamide]
16 | < 100 | – | > 1000 | 100 to 1000 | 100 to 1000 | 100 to 1000 | Cc1cc(F)c(C(=O)Nc2cnn(C(C)C)n2)cc1NC(=O)c1cnc(N)s1 [Example 171, 2-Amino-N-[4-fluoro-2-methyl-5-[(2-propan-2-yltriazol-4-yl)carbamoyl]phenyl]-1,3-thiazole-5-carboxamide]
17 | < 100 | < 100 | > 1000 | – | > 1000 | > 1000 | Nc1ncc(C(=O)Nc2cc(C(=O)Nc3ccc(OC4CC4)cn3)c(F)cc2F)s1 [Example 222, 2-Amino-N-[5-[(5-cyclopropyloxypyridin-2-yl)carbamoyl]-2,4-difluorophenyl]-1,3-thiazole-5-carboxamide]
18 | < 100 | – | > 1000 | > 1000 | < 100 | > 1000 | CC(=O)Nc1ncc(C(=O)Nc2cc(C(=O)Nc3ccc(OC4CC4)cn3)c(F)cc2C)s1 [Example 240, 2-Acetamido-N-[5-[(5-cyclopropyloxypyridin-2-yl)carbamoyl]-4-fluoro-2-methylphenyl]-1,3-thiazole-5-carboxamide]
